“And” between values parts separate entries of the source, which are not always exact repeats. Equal entries are not always repeated. Where two headings read alike, the source gives them in different places.
Legend:
HT-29 = type: cell-based, human
HepG2 = type: cell-based, human
SCC-25 = type: cell-based, human
ACP-03 = type: cell-based, human
MRC-5 = type: cell-based; details: MRC5; MRC-5 (human lung fibroblast, non-cancer), 72 h
WT SV40 MEF = type: cell-based, mouse; details: Mus musculus, 72 h
BAD KO SV40 MEF = type: cell-based, mouse; details: Mus musculus, 72 h
HepG2 cells = assay: Gene expression analysis by qPCR array (TaqMan Array Human Molecular Mechanisms of Cancer); type: cell-based; parameters: key to RQ CCND3 gene expression / RQ CDC42 gene expression / RQ DVL1 gene expression / RQ FYN gene expression / RQ KRAS gene expression / RQ MAP2K1 gene expression / RQ MAPK1 gene expression / RQ MAPK14 gene expression / RQ NFKB2 gene expression / RQ RAF1 gene expression / RQ RELA gene expression / RQ BCAR1 gene expression: 2^-ΔΔCT relative quantification vs 0.2% DMSO control (calibrator = 1); details: HepG2, 12 h; RCX 12 µM, DOX 2 µM
Procedure: HepG2 cells were plated in bottles for cell culture (7 × 10^4 cells/mL). […] The RNA was evaluated by fluorimetry using QuBit (Life Technologies; Camarillo, CA, USA). RNA reverse transcription was performed using a Superscript VILO™ Kit (Invitrogen Corporation; Waltham, MA, USA). A 96-well plate TaqMan® Array Human Molecular Mechanisms of Cancer (ID 4418806, Applied Biosystems^TM, Foster City, CA, USA) was used for the gene expression study by qPCR. The reactions were conducted in an ABI ViiA7 system (Applied Biosystems^TM; Foster City, CA, USA). The cycle conditions comprised 2 min at 50 °C, 20 s at 95 °C, then 40 cycles of 3 s at 95 °C and 30 s at 60 °C. The relative quantification (RQ) of mRNA expression was calculated by the 2^-ΔΔCT method[40] using Gene Expression Suite™ Software (Applied Biosystems^TM), and the cells treated with the negative control (0.2% DMSO) were used as a calibrator. The reactions were normalized by the geometric mean of the RQ of the reference genes GAPDH, 18S and HPRT1. All experiments were performed in DNase/RNase-free conditions.

COc1cccc2c1C(=O)c1c(O)c3c(c(O)c1C2=O)C[C@@](O)(C(=O)CO)C[C@@H]3O[C@H]1C[C@H](N)[C@H](O)[C@H](C)O1 [DOX, doxorubicin]
IC50 (HT-29; HT-29 (human colon adenocarcinoma), 72 h): 0.3 µM
selectivity index (SI) (HT-29; IC50 HaCAT / IC50 HT-29): 0.3
selectivity index (SI) (HT-29; IC50 MRC5 / IC50 HT-29): 4.3
selectivity index (SI) (HT-29; IC50 PBMC / IC50 HT-29): 17.3
IC50 (HepG2; HepG2 (human hepatocellular carcinoma), monolayer, 72 h): 1.3 µM
selectivity index (SI) (HepG2; IC50 HaCAT / IC50 HepG2): 0.1
selectivity index (SI) (HepG2; IC50 MRC5 / IC50 HepG2): 1
selectivity index (SI) (HepG2; IC50 PBMC / IC50 HepG2): 4
selectivity index (SI) (SCC-25; IC50 HaCAT / IC50 SCC-25): 0.1
selectivity index (SI) (SCC-25; IC50 MRC5 / IC50 SCC-25): 1.3
selectivity index (SI) (SCC-25; IC50 PBMC / IC50 SCC-25): 5.2
IC50 (SCC-25; SCC-25 (human oral squamous cell carcinoma), 72 h): 1 µM
IC50 (ACP-03; ACP-03 (human gastric adenocarcinoma), 72 h): 2.4 µM
selectivity index (SI) (ACP-03; IC50 HaCAT / IC50 ACP-03): 0.04
selectivity index (SI) (ACP-03; IC50 MRC5 / IC50 ACP-03): 0.5
selectivity index (SI) (ACP-03; IC50 PBMC / IC50 ACP-03): 2.2
IC50 (MRC-5): 1.3 µM
IC50 (WT SV40 MEF): 0.04 µM
IC50 (BAD KO SV40 MEF): 0.41 µM
RQ ABL1 gene expression (HepG2 cells): 2.628
RQ AKT1 gene expression (HepG2 cells): 1.813
RQ AKT2 gene expression (HepG2 cells): 3.3 and 3.275
RQ APC gene expression (HepG2 cells): 1.780
RQ BAX gene expression (HepG2 cells): 0.964
RQ BCAR1 gene expression (HepG2 cells): 2.2 and 2.176
RQ BCL2L1 gene expression (HepG2 cells): 0.663
RQ BCL2L11 gene expression (HepG2 cells): 14.0 and 13.988
RQ BCL2 gene expression (HepG2 cells): 1.1 and 1.140
RQ BID gene expression (HepG2 cells): 1.433
RQ BRAF gene expression (HepG2 cells): 1.0 and 1.012
RQ CASP8 gene expression (HepG2 cells): 1.414
RQ CASP9 gene expression (HepG2 cells): 0.957
RQ CCND1 gene expression (HepG2 cells): 0.8 and 0.820
RQ CCND3 gene expression (HepG2 cells): 1.2 and 1.151
RQ CCNE1 gene expression (HepG2 cells): 1.535
RQ CDC42 gene expression (HepG2 cells): 1.1 and 1.077
RQ CDK2 gene expression (HepG2 cells): 4.331
RQ CDK4 gene expression (HepG2 cells): 1.4 and 1.427
RQ CDKN1A gene expression (HepG2 cells): 2.849
RQ CDKN1B gene expression (HepG2 cells): 1.0 and 1.029
RQ CDKN2A gene expression (HepG2 cells): 2.0 and 2.027
RQ CRK gene expression (HepG2 cells): 2.5 and 2.519
RQ CTNNB1 gene expression (HepG2 cells): 2.392
RQ CYCS gene expression (HepG2 cells): 0.582
RQ DVL1 gene expression (HepG2 cells): 0.5 and 0.539
RQ E2F1 gene expression (HepG2 cells): 4.8 and 4.768
RQ EGFR gene expression (HepG2 cells): 0.5 and 0.502
RQ ELK1 gene expression (HepG2 cells): 2.1 and 2.142
RQ ERBB2 gene expression (HepG2 cells): 1.8 and 1.746
RQ FADD gene expression (HepG2 cells): 3.100
RQ FAS gene expression (HepG2 cells): 2.5 and 2.459
RQ FGF2 gene expression (HepG2 cells): 1.9 and 1.914
RQ FOS gene expression (HepG2 cells): 1.514
RQ FYN gene expression (HepG2 cells): 1.0 and 1.034
RQ FZD1 gene expression (HepG2 cells): 5.8 and 5.811
RQ GRB2 gene expression (HepG2 cells): 1.030
RQ GSK3B gene expression (HepG2 cells): 0.590
RQ HRAS gene expression (HepG2 cells): 1.4 and 1.370
RQ IGF1R gene expression (HepG2 cells): 1.160
RQ ITGA2B gene expression (HepG2 cells): 2.4 and 2.384
RQ ITGAV gene expression (HepG2 cells): 2.101
RQ ITGB1 gene expression (HepG2 cells): 1.941
RQ ITGB3 gene expression (HepG2 cells): 1.707
RQ JUN gene expression (HepG2 cells): 7.3 and 7.340
RQ KRAS gene expression (HepG2 cells): 2.6 and 2.552
RQ MAP2K1 gene expression (HepG2 cells): 2.4 and 2.441
RQ MAP3K5 gene expression (HepG2 cells): 1.887
RQ MAPK1 gene expression (HepG2 cells): 0.9 and 0.857
RQ MAPK3 gene expression (HepG2 cells): 1.561
RQ MAPK8 gene expression (HepG2 cells): 1.273
RQ MAPK14 gene expression (HepG2 cells): 2.2 and 2.163
RQ MDM2 gene expression (HepG2 cells): 0.9 and 0.928
RQ MYC gene expression (HepG2 cells): 0.4 and 0.392
RQ NFKB1 gene expression (HepG2 cells): 2.0 and 2.017
RQ NFKB2 gene expression (HepG2 cells): 3.6 and 3.594
RQ NFKBIA gene expression (HepG2 cells): 1.224
RQ NRAS gene expression (HepG2 cells): 1.874
RQ PIK3CA gene expression (HepG2 cells): 2.854
RQ PIK3R1 gene expression (HepG2 cells): 6.207
RQ PTEN gene expression (HepG2 cells): 0.476
RQ PTK2B gene expression (HepG2 cells): 0.530
RQ PTK2 gene expression (HepG2 cells): 1.0 and 0.948
RQ RAC1 gene expression (HepG2 cells): 2.048
RQ RAF1 gene expression (HepG2 cells): 3.5 and 3.447
RQ RB1 gene expression (HepG2 cells): 1.230
RQ RELA gene expression (HepG2 cells): 1.1 and 1.074
RQ RHOA gene expression (HepG2 cells): 1.270
RQ SHC1 gene expression (HepG2 cells): 1.9 and 1.865
RQ SMAD4 gene expression (HepG2 cells): 2.6 and 2.601
RQ SOS1 gene expression (HepG2 cells): 2.2 and 2.199
RQ SRC gene expression (HepG2 cells): 1.036
RQ TCF3 gene expression (HepG2 cells): 1.9 and 1.915
RQ TGFB1 gene expression (HepG2 cells): 1.413
RQ TGFBR1 gene expression (HepG2 cells): 1.403
RQ TGFBR2 gene expression (HepG2 cells): 1.094
RQ TP53 gene expression (HepG2 cells): 1.0 and 0.945
RQ VEGFA gene expression (HepG2 cells): 1.8 and 1.772

Source: PMC5833756, “A novel ruthenium complex with xanthoxylin induces S-phase arrest and causes ERK1/2-mediated apoptosis in HepG2 cells through a p53-independent pathway” (Cell Death & Disease, 2018)
